Experimental data taken from US9802927B2, “Oxadiazine compounds and methods of use thereof” (Denali Therapeutics, Inc., priority 2015, dated 2017).
pEC50: −log10 of the molar value.

Test system: Aβ42
Experiment: In vitro cell screening assay in H4 cells expressing human APP751: Aβ42 by sandwich ELISA
Format: cell-based
Settings: compounds 0.003-10 μM, incubated overnight (16-18 h), sandwich ELISA of supernatant
Method in brief: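 H4 neuroglioma cells stably expressing wild-type human APP751, switched to Pro293 medium and treated with compounds (0.003-10 μM, 0.33% DMSO) for 16-18 h at 37 °C. Supernatant Aβ42 quantified by sandwich ELISA (C-terminal capture, 4G8-HRP detection, A450); EC50 by sigmoidal fit normalized to DMSO and DAPT controls.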

In the case of `COc1nc(C2=NOCC(c3ccc(Cl)cc3C)N2C)ccc1-n1cnc(C)c1` (single isomer, unassigned) [Example 27B, 5-(4-chloro-2-methylphenyl)-3-(6-methoxy-5-(4-methyl-1H-imidazol-1-yl)pyridin-2-yl)-4-methyl-5,6-dihydro-4H-1,2,4-oxadiazine], the pEC50 was 7.21.
With `CCC1CON=C(c2ccc(-n3cnc(C)c3)c(OC)n2)N1` (single isomer, unassigned) [Example 133B, 5-ethyl-3-(6-methoxy-5-(4-methyl-1H-imidazol-1-yl)pyridin-2-yl)-5,6-dihydro-4H-1,2,4-oxadiazine] the pEC50 was 6.14.
`COc1nc(C2=NOCC(c3cccc(C#N)c3)N2)ccc1-n1cnc(C)c1` (single isomer, unassigned; (-)) [Example 141A, (−)-3-(3-(6-methoxy-5-(4-methyl-1H-imidazol-1-yl)pyridin-2-yl)-5,6-dihydro-4H-1,2,4-oxadiazin-5-yl) benzonitrile] showed a pEC50 of less than 5.52.
`COc1nc(C2=NOCC(c3nn(C)c4ccc(Cl)cc34)N2)ccc1-n1cnc(C)c1` (single isomer, unassigned; (+)) [Example 232B, (+)-5-(5-chloro-1-methyl-1H-indazol-3-yl)-3-(6-methoxy-5-(4-methyl-1H-imidazol-1-yl)pyridin-2-yl)-5,6-dihydro-4H-1,2,4-oxadiazine] gave a pEC50 of 7.89.
`COc1nc(C2=NOCC(c3ccc4c(c3)CCC4)N2)ccc1-n1cnc(C)c1` (single isomer, unassigned; (-)) [Example 248A, (−)-5-(2,3-dihydro-1H-inden-5-yl)-3-(6-methoxy-5-(4-methyl-1H-imidazol-1-yl)pyridin-2-yl)-5,6-dihydro-4H-1,2,4-oxadiazine] gave a pEC50 of 6.32.
Work on `COc1nc(C2=NOCC(c3cc(F)cc(Cl)c3)N2)ccc1-n1cnc(C)c1` (single isomer, unassigned; (-)) [Example 111A, (−)-5-(3-chloro-5-fluorophenyl)-3-(6-methoxy-5-(4-methyl-1H-imidazol-1-yl)pyridin-2-yl)-5,6-dihydro-4H-1,2,4-oxadiazine] yielded a pEC50 of less than 5.52.
`COc1nc(C2=NOCC(c3cn(C(C)C)c4cc(F)ccc34)N2)ccc1-n1cnc(C)c1` (single isomer, unassigned; (+)) [Example 219A, (+)-5-(6-fluoro-1-isopropyl-1H-indol-3-yl)-3-(6-methoxy-5-(4-methyl-1H-imidazol-1-yl)pyridin-2-yl)-5,6-dihydro-4H-1,2,4-oxadiazine] showed a pEC50 of 8.04.
Work on `COc1nc(C2=NOCC(c3cc4ccc(C5CC5)cc4o3)N2)ccc1-n1cnc(C)c1` (single isomer, unassigned; (-)) [Example 236A, (−)-5-(6-cyclopropylbenzofuran-2-yl)-3-(6-methoxy-5-(4-methyl-1H-imidazol-1-yl)pyridin-2-yl)-5,6-dihydro-4H-1,2,4-oxadiazine] yielded a pEC50 of 6.40.
`COc1nc(C2=NOCC(c3csc4ccccc34)N2)ccc1-n1cnc(C)c1` (single isomer, unassigned; (+)) [Example 68B, (+)-5-(benzo [b]thiophen-3-yl)-3-(6-methoxy-5-(4-methyl-1H-imidazol-1-yl)pyridin-2-yl)-5,6-dihydro-4H-1,2,4-oxadiazine] showed a pEC50 of 7.68.
`COc1nc(C2=NOCC(c3cc4ccc(F)cc4o3)N2)ccc1-n1cnc(C)c1` (single isomer, unassigned; (-)) [Example 52A, (−)-5-(6-fluorobenzofuran-2-yl)-3-(6-methoxy-5-(4-methyl-1H-imidazol-1-yl)pyridin-2-yl)-5,6-dihydro-4H-1,2,4-oxadiazine] gave a pEC50 of 6.18.
`COc1nc(C2=NOCC(c3cn(C)c4ccc(Cl)c(F)c34)N2)ccc1-n1cnc(C)c1` (single isomer, unassigned; (+)) [Example 237A, (+)-5-(5-chloro-4-fluoro-1-methyl-1H-indol-3-yl)-3-(6-methoxy-5-(4-methyl-1H-imidazol-1-yl)pyridin-2-yl)-5,6-dihydro-4H-1,2,4-oxadiazine] showed a pEC50 of 8.30.
In the case of `COc1nc(C2=NOCC(c3cc4cc(C5CC5)ccc4o3)N2)ccc1-n1cnc(C)c1` (single isomer, unassigned; (+)) [Example 234B, (+)-5-(5-cyclopropylbenzofuran-2-yl)-3-(6-methoxy-5-(4-methyl-1H-imidazol-1-yl)pyridin-2-yl)-5,6-dihydro-4H-1,2,4-oxadiazine], the pEC50 was 8.02.
Compound `COc1nc(C2=NOCC(c3ccc4sc(C)nc4c3)N2)ccc1-n1cnc(C)c1` (single isomer, unassigned; (+)) [Example 215B, (+)-3-(6-methoxy-5-(4-methyl-1H-imidazol-1-yl)pyridin-2-yl)-5-(2-methylbenzo[d]thiazol-5-yl)-5,6-dihydro-4H-1,2,4-oxadiazine] has a pEC50 of 7.28.
Compound `COc1nc(C2=NOCC(c3ccccc3)N2)ccc1-n1cnc(C)c1` (single isomer, unassigned) [Example 36A, 3-(6-methoxy-5-(4-methyl-1H-imidazol-1-yl)pyridin-2-yl)-5-phenyl-5,6-dihydro-4H-1,2,4-oxadiazine] has a pEC50 of 5.56.
`COc1nc(C2=NOCC(c3cc4cc(Cl)ccc4o3)N2)ccc1-n1cnc(C)c1` (single isomer, unassigned; (-)) [Example 57A, (−)-5-(5-chlorobenzofuran-2-yl)-3-(6-methoxy-5-(4-methyl-1H-imidazol-1-yl)pyridin-2-yl)-5,6-dihydro-4H-1,2,4-oxadiazine] gave a pEC50 of 5.64.
In the case of `COc1nc(C2=NOCC(c3cc(F)cc(F)c3)N2)ccc1-n1cnc(C)c1` (single isomer, unassigned; (+)) [Example 81B, (+)-5-(3,5-difluorophenyl)-3-(6-methoxy-5-(4-methyl-1H-imidazol-1-yl)pyridin-2-yl)-5,6-dihydro-4H-1,2,4-oxadiazine], the pEC50 was 7.37.
`COc1cccc(C2CON=C(c3ccc(-n4cnc(C)c4)c(OC)n3)N2)c1` (single isomer, unassigned; (-)) [Example 145A, (−)-3-(6-methoxy-5-(4-methyl-1H-imidazol-1-yl)pyridin-2-yl)-5-(3-methoxyphenyl)-5,6-dihydro-4H-1,2,4-oxadiazine] was tested, and the pEC50 was 5.57.
`COc1nc(C2=NOCC(c3ccc(OC(F)(F)F)cc3)N2)ccc1-n1cnc(C)c1` (single isomer, unassigned; (-)) [Example 70A, (−)-3-(6-methoxy-5-(4-methyl-1H-imidazol-1-yl)pyridin-2-yl)-5-(4-(trifluoromethoxy)phenyl)-5,6-dihydro-4H-1,2,4-oxadiazine] was tested, and the pEC50 was less than 5.52.
With `COc1nc(C2=NOCC(c3ccc4nc(C)sc4c3)N2)ccc1-n1cnc(C)c1` (single isomer, unassigned; (-)) [Example 238A, (−)-3-(6-methoxy-5-(4-methyl-1H-imidazol-1-yl)pyridin-2-yl)-5-(2-methylbenzo[d]thiazol-6-yl)-5,6-dihydro-4H-1,2,4-oxadiazine] the pEC50 was less than 5.52.
With `COc1nc(C2=NOCC(c3nc4ccccc4s3)N2)ccc1-n1cnc(C)c1` (single isomer, unassigned; (+)) [Example 208B, (+)-5-(benzo [d]thiazol-2-yl)-3-(6-methoxy-5-(4-methyl-1H-imidazol-1-yl)pyridin-2-yl)-5,6-dihydro-4H-1,2,4-oxadiazine] the pEC50 was 7.13.
Work on `COc1nc(C2=NOCC(c3cc4ccccc4o3)N2)ccc1-n1cnc(C)c1` (single isomer, unassigned; (-)) [Example 186A, (−)-5-(benzofuran-2-yl)-3-(6-methoxy-5-(4-methyl-1H-imidazol-1-yl)pyridin-2-yl)-5,6-dihydro-4H-1,2,4-oxadiazine] yielded a pEC50 of 5.93.
Work on `COc1ccc2c(c1)c(C1CON=C(c3ccc(-n4cnc(C)c4)c(OC)n3)N1)cn2C` (single isomer, unassigned; (-)) [Example 250A, (−)-5-(5-methoxy-1-methyl-1H-indol-3-yl)-3-(6-methoxy-5-(4-methyl-1H-imidazol-1-yl)pyridin-2-yl)-5,6-dihydro-4H-1,2,4-oxadiazine] yielded a pEC50 of 6.70.
Work on `COc1nc(C2=NOCC(c3nn(C)c4ccc(Cl)cc34)N2)ccc1-n1cnc(C)c1` (single isomer, unassigned; (-)) [Example 232A, (−)-5-(5-chloro-1-methyl-1H-indazol-3-yl)-3-(6-methoxy-5-(4-methyl-1H-imidazol-1-yl)pyridin-2-yl)-5,6-dihydro-4H-1,2,4-oxadiazine] yielded a pEC50 of 6.56.
For `COc1nc(C2=NOCC(C3CC(F)(F)C3)N2)ccc1-n1cnc(C)c1` (single isomer, unassigned; (-)) [Example 180A, (−)-5-(3,3-difluorocyclobutyl)-3-(6-methoxy-5-(4-methyl-1H-imidazol-1-yl)pyridin-2-yl)-5,6-dihydro-4H-1,2,4-oxadiazine], the pEC50 was less than 5.52.
`COc1nc(C2=NOCC(c3cn(C)c4cccc(C(F)(F)F)c34)N2)ccc1-n1cnc(C)c1` (single isomer, unassigned; (+)) [Example 230A, (+)-3-(6-methoxy-5-(4-methyl-1H-imidazol-1-yl)pyridin-2-yl)-5-(1-methyl-4-(trifluoromethyl)-1H-indol-3-yl)-5,6-dihydro-4H-1,2,4-oxadiazine] was tested, and the pEC50 was 6.98.
With `COc1cccc(C2CON=C(c3ccc(-n4cnc(C)c4)c(OC)n3)N2)c1` (single isomer, unassigned; (+)) [Example 145B, (+)-3-(6-methoxy-5-(4-methyl-1H-imidazol-1-yl)pyridin-2-yl)-5-(3-methoxyphenyl)-5,6-dihydro-4H-1,2,4-oxadiazine] the pEC50 was 6.71.
With `COc1nc(C2=NOCC(c3ccc(Cl)c(Cl)c3)N2)ccc1-n1cnc(C)c1` (single isomer, unassigned; (-)) [Example 49A, (−)-5-(3,4-dichlorophenyl)-3-(6-methoxy-5-(4-methyl-1H-imidazol-1-yl)pyridin-2-yl)-5,6-dihydro-4H-1,2,4-oxadiazine] the pEC50 was less than 5.52.
`COc1nc(C2=NOC[C@H](c3cc4ccc(C)cc4o3)N2)ccc1-n1cnc(C)c1` [Example 22, (R)-3-(6-Methoxy-5-(4-methyl-1H-imidazol-1-yl)pyridin-2-yl)-5-(6-methylbenzofuran-2-yl)-5,6-dihydro-4H-1,2,4-oxadiazine] was tested, and the pEC50 (Homo sapiens) was 7.74.
